Broadly, the EC50 is the concentration that produces a half-maximal response.

Holding throughout (type): in vivo
One test concerns cucumber downy mildew. In words: Toxicity test of BIT combined with mancozeb on cucumber downy mildew (bioassay). As to conditions: for ATI (actual toxicity index): (EC50 of standard/EC50 of test agent)*100, standard BIT; for EC50: cucumber downy mildew.
Another test concerns potato late blight. As to conditions: for ATI (actual toxicity index): (EC50 of standard/EC50 of test agent)*100, standard MBIT; for EC50: potato late blight.
The subject of another test is apple anthracnose. In words: Toxicity test of BBIT combined with mancozeb on apple anthracnose (bioassay). The following applies: for ATI (actual toxicity index): (EC50 of standard/EC50 of test agent)*100, standard BBIT; for EC50: apple anthracnose.

Converted amounts (≈) assume the structure as drawn.

With `O=c1[nH]sc2ccccc12` [BIT, 1,2-benzisothiazolin-3-one], in the test with cucumber downy mildew, the “ATI (actual toxicity index)” value is given as 100.00 and the concentration giving a half-maximal response (EC50) came out at 13.5 µg/mL.
With mancozeb, the “ATI (actual toxicity index)” value in the test with cucumber downy mildew was 17.96; with potato late blight it was 21.69; with apple anthracnose, 20.67. Besides, the results for the 50% effective concentration (EC50) with cucumber downy mildew, with potato late blight and in the test on apple anthracnose were 75.17 µg/mL, 68.27 µg/mL and 92.36 µg/mL, respectively.
Turning to `CCCCn1sc2ccccc2c1=O` [BBIT, 2-n-butyl-1,2-benzisothiazolin-3-one], in the test with apple anthracnose, the “ATI (actual toxicity index)” value is listed as 100 and the EC50 was determined as 19.09 µg/mL.
As to `Cn1sc2ccccc2c1=O` [MBIT, 2-methyl-1,2-benzisothiazolin-3-one], in the test on potato late blight, the “ATI (actual toxicity index)” value turned out to be 100.00 and the 50% effective concentration (EC50) came out at 14.81 µg/mL (≈ 89.6 µM).

The record behind these values is patent US10694746B2, “Fungicidal composition” (JIANGSU HUIFENG BIO AGRICULTURE CO., LTD., priority 2016, dated 2020).
